In US12144864B2, “Tubulysins and protein-tubulysin conjugates” (Regeneron Pharmaceuticals, Inc., priority 2018, dated 2024):
pIC50: −log10 of the molar value. Like-named read-outs stand apart in the source and are kept apart here.

Columns and labels:
[1] = test system: H69AR cells; assay: Cytotoxicity in panel of MDR cell lines, H69AR (72 h and 144 h); type: cell-based, human; conditions: for pIC50: Homo sapiens
Experimental: (§1) To test the ability of the disclosed tubulysin payloads to kill human cell lines, an in vitro cytotoxicity assay was performed. In vitro cytotoxicity of the disclosed payloads, as well as reference compounds, were evaluated using the CellTiter-Glo Assay Kit (Promega, Cat #G7573), in which the quantity of ATP present is used to determine the number of viable cells in culture. For the assay, C4-2, HEK293, or T47D cells were seeded at 4000 cells/well on Nunclon white 96-well plates in complete growth medium (DME high glucose:Ham's F12 at 4:1, 10% FBS, 100 units/ml Penicillin, 100 ug/ml streptomycin, 53 ug/ml glutatmine, 10 ug/ml insulin, 220 ng/ml biotin, 12.5 pg/ml T3, 12.5 ug/ml Adenine, 4 ug/ml transferrin for C42 cells; DME high glucose, 10% FBS, 100 units/ml Penicillin, 100 ug/ml streptomycin, 53 ug/ml glutatmine for HEK293; RPMI, 10% FBS, 100 units/ml Penicillin, 100 ug/ml streptomycin, 53 ug/ml glutatmine, 10 ug/ml insulin, 10 mM HEPEs, 200 nM Sodium Pyruvate for T47D cells) and grown overnight at 37° C. in 5% CO2. For cell viability curves, 1:3 serially diluted payloads were added to the cells at final concentrations ranging from 100 nM to […], including a no treatment control group, and were then incubated for 5 days. After the 5-day incubation, cells were incubated at room temperature with 100 μL of CellTiter-Glo reagents for 10 minutes. Relative luminescence units (RLU) were determined on a Victor plate reader (PerkinElmer). The IC50 values were determined from a four-parameter logistic equation over a 10-point response curve (GraphPad Prism). All IC50 values are expressed in molar (M) concentration. The percent cell killing (% kill) at the maximum concentration tested was estimated from the following formula (100−% viable cells). Averages±standard deviation (SD) are included where replicate experiments were performed.
(§2) To further test the ability of the disclosed tubulysin payloads, a cytotoxicity assay was performed using a panel of multidrug resistant (MDR) cell lines. In vitro cytotoxicity of the disclosed payloads as well as reference compounds were similarly evaluated as described above except using HCT-15 cells, a colorectal carcinoma cell line; H69AR, a doxorubicin resistant MDR derivative of the small cell lung cancer carcinoma cell line NCI-H69; MES-SA/MX2, a mitoxantrone resistant MDR derivative of the uterine sarcoma cell line MES-SA; and HL60/MX2, a mitoxantrone resistant MDR derivative of the acute promyelocytic leukemia cell line HL60. In these assays, cytotoxicity was evaluated in normal growth media (RPMI, 10% FBS, 100 units/ml Penicillin, 100 ug/ml streptomycin, and 53 ug/ml glutatmine for HCT-15 and HL60/MX2; RPMI, 20% FBS, 100 units/ml Penicillin, 100 ug/ml streptomycin, and 53 ug/ml glutatmine for H69-AR; Waymouths's:McCoy's (1:1), 10% FBS, 100 units/ml Penicillin, 100 ug/ml streptomycin, and 53 ug/ml glutatmine for MES-SA/MX2) with 1000 cells per well following 72 h and 144 h incubation with payloads.

[2] = test system: C4-2 cells; assay: Cell-based killing assay of payloads (CellTiter-Glo), C4-2 cells; set-up: species or system human; conditions: 5-day incubation; for pIC50: Homo sapiens, C4-2, 120 h, average ± SD where replicates; for C4-2 % Kill: at maximum concentration tested (100 − % viable cells)
Experimental: as §1

[3] = test system: HCT-15 cells; assay: Cytotoxicity in panel of MDR cell lines, HCT-15 (72 h and 144 h); type: cell-based, human; conditions: for pIC50: Homo sapiens
Experimental: as §1, §2

[4] = test system: HCT15 cells; assay: cells; type: cell-based, human; conditions: HCT15 cells; for HCT-15 + verapamil % Kill / HCT-15 % Kill: maximum % cell killing
Experimental: as §1
In vitro cytotoxicity of the disclosed payloads as well as reference compounds were evaluated similarly as described above except using 1000 HCT15 cells, a colorectal carcinoma cell line, in growth medium (RPMI, 10% FBS, 100 units/ml Penicillin, 100 ug/ml streptomycin, 53 ug/ml glutatmine) with or without 5 ug/mL of Verapamil.

[5] = test system: MES-SA/MX2 cells; assay: Cytotoxicity in panel of MDR cell lines, MES-SA/MX2 (72 h and 144 h); type: cell-based, human; conditions: for pIC50: Homo sapiens
Experimental: as §1, §2

[6] = test system: HL60/MX2 cells; assay: Cytotoxicity in panel of MDR cell lines, HL60/MX2 (72 h and 144 h); type: cell-based, human; conditions: for pIC50: Homo sapiens
Experimental: as §1, §2

[7] = 72 h incubation, read-out: H69AR IC50 72 h
[8] = 144 h incubation, read-out: H69AR IC50 144 h
[9] = 72 h incubation, read-out: HCT-15 IC50 72 h
[10] = 144 h incubation, read-out: HCT-15 IC50 144 h
[11] = with 5 ug/mL Verapamil, read-out: HCT-15 + verapamil IC50
[12] = Homo sapiens, HCT-15, without Verapamil, read-out: HCT-15 IC50
[13] = with 5 ug/mL Verapamil, read-out: HCT-15 + verapamil IC50 (value in brackets)
[14] = Homo sapiens, HCT-15, without Verapamil, read-out: HCT-15 IC50 (value in brackets)

CCCCCCN(C(=O)[C@@H](NC(=O)[C@H]1CCCCN1C)[C@@H](C)CC)[C@H](C[C@@H](OC(C)=O)c1nc(C(=O)N[C@@H](Cc2ccc(F)cc2)C[C@H](C)C(=O)O)cs1)C(C)C [IVa, (2S,4R)-4-(2-((1R,3R)-1-Acetoxy-3-((2S,3S)—N-hexyl-3-methyl-2-((R)-1-methylpiperidine-2-carboxamido)pentanamido)-4-methylpentyl)thiazole-4-carboxamido)-5-(4-fluorophenyl)-2-methylpentanoic acid]
H69AR % Kill 72 h ([1]; 72 h incubation): 96.1%
H69AR % Kill 144 h ([1]; 144 h incubation): 99.3%
pIC50 [1, 7]: 9.13
pIC50 [1, 8]: 8.86
pIC50 [2]: 10.19
C4-2 % Kill [2]: 95.2%
HCT-15 % Kill 72 h ([3]; 72 h incubation): 97.8%
HCT-15 % Kill 144 h ([3]; 144 h incubation): 99.6%
pIC50 [3, 9]: 9.78
pIC50 [3, 10]: 9.50

CC[C@H](C)[C@H](NC(=O)[C@H]1CCCCN1C)C(=O)N(CCCCc1cn(CCCC(=O)O)nn1)[C@H](C[C@@H](OC(C)=O)c1nc(C(=O)N[C@@H](Cc2ccc(N)cc2)CC(C)(C)C(=O)O)cs1)C(C)C [IVn, (S)-4-(2-((1R,3R)-1-Acetoxy-3-((2S,3S)—N-(4-(1-(3-carboxypropyl)-1H-1,2,3-triazol-4-yl)butyl)-3-methyl-2-((R)-1-methylpiperidine-2-carboxamido)pentanamido)-4-methylpentyl)thiazole-4-carboxamido)-5-(4-aminophenyl)-2,2-dimethylpentanoic acid]
HCT-15 + verapamil % Kill ([4]; with 5 ug/mL Verapamil): 72.4%
pIC50 [4, 11]: < 7.52
HCT-15 % Kill ([4]; without Verapamil): 30.9%
pIC50 [4, 12]: < 7.52
pIC50 [2]: < 7.00
C4-2 % Kill [2]: 30.2%

CCCCCCN(C(=O)[C@@H](NC(=O)[C@H]1CCCCN1C)[C@@H](C)CC)[C@H](C[C@@H](OC(C)=O)c1nc(C(=O)N[C@H](Cc2ccc(N)c(F)c2)CC(C)(C)C(=O)O)cs1)C(C)C [IVvA, 4-({2-[(1R,3R)-1-(Acetyloxy)-3-[(2S,3S)—N-hexyl-3-methyl-2-{[(2R)-1-methylpiperidin-2-yl]formamido}pentanamido]-4-methylpentyl]-1,3-thiazol-4-yl}formamido)-5-(4-amino-3-fluorophenyl)-2,2-dimethylpentanoic acid]
HCT-15 + verapamil % Kill ([4]; with 5 ug/mL Verapamil): 97.1%
pIC50 [4, 11]: 8.71
HCT-15 % Kill ([4]; without Verapamil): 99.2%
pIC50 [4, 12]: 8.28
pIC50 [2]: 7.96
C4-2 % Kill [2]: 96.7%

CCCCCCN(C(=O)[C@@H](NC(=O)[C@H]1CCCCN1C)[C@@H](C)CC)[C@H](C[C@@H](OC(C)=O)c1nc(C(=O)N[C@@H](Cc2ccc(O)c(N)c2)CC(C)(C)C(=O)O)cs1)C(C)C [IVw, (S)-4-(2-((1R,3R)-1-Acetoxy-3-((2S,3S)—N-hexyl-3-methyl-2-((R)-1-methylpiperidine-2-carboxamido)pentanamido)-4-methylpentyl)thiazole-4-carboxamido)-5-(3-amino-4-hydroxyphenyl)-2,2-dimethylpentanoic acid]
HCT-15 + verapamil % Kill ([4]; with 5 ug/mL Verapamil): 98.3%
pIC50 [4, 11]: 8.35
HCT-15 % Kill ([4]; without Verapamil): 95.9%
pIC50 [4, 12]: 8.01
pIC50 [2]: < 7.00
C4-2 % Kill [2]: 27.9%

C#CCCCON(C(=O)[C@@H](NC(=O)[C@H]1CCCCN1C)[C@@H](C)CC)[C@H](C[C@@H](OC(C)=O)c1nc(C(=O)N[C@@H](Cc2ccc(O)cc2)CC(C)(C)C(=O)O)cs1)C(C)C [IX, (4S)-4-({2-[(1R,3R)-1-(Acetyloxy)-4-methyl-3-[(2S,3S)-3-methyl-2-{[(2R)-1-methylpiperidin-2-yl]formamido}-N-(pent-4-yn-1-yloxy)pentanamido]pentyl]-1,3-thiazol-4-yl}formamido)-5-(4-hydroxyphenyl)-2,2-dimethylpentanoic acid]
pIC50 [4, 13]: 9.79
pIC50 [4, 14]: 9.77
pIC50 [2]: 10.27

CCCCCCON(C(=O)[C@@H](NC(=O)[C@H]1CCCCN1C)[C@@H](C)CC)[C@H](C[C@@H](OC(=O)NC)c1nc(C(=O)N[C@@H](Cc2ccc(O)cc2)C[C@H](C)C(=O)O)cs1)C(C)C [VIa, (2S,4R)-5-(4-Hydroxyphenyl)-4-(2-((5R,7R)-7-isopropyl-8-((2S,3S)-3-methyl-2-((R)-1-methylpiperidine-2-carboxamido)pentanoyl)-3-oxo-4,9-dioxa-2,8-diazapentadecan-5-yl)thiazole-4-carboxamido)-2-methylpentanoic acid]
HCT-15 + verapamil % Kill ([4]; with 5 ug/mL Verapamil): 98.4 ± 0.7%
pIC50 [4, 11]: 9.59
HCT-15 % Kill ([4]; without Verapamil): 97 ± 1.9%
pIC50 [4, 12]: 8.24
H69AR % Kill 72 h ([1]; 72 h incubation): 83.5%
H69AR % Kill 144 h ([1]; 144 h incubation): 91.6%
pIC50 [1, 7]: 7.80
pIC50 [1, 8]: 7.10
pIC50 [2]: 8.73
C4-2 % Kill [2]: 94.1%
HCT-15 % Kill 72 h ([3]; 72 h incubation): 94%
HCT-15 % Kill 144 h ([3]; 144 h incubation): 98.9%
pIC50 [3, 9]: 8.27
pIC50 [3, 10]: 8.14

CCCCCCON(C(=O)[C@@H](NC(=O)[C@H]1CCCCN1C)[C@@H](C)CC)[C@H](C[C@@H](OC(=O)NCCC)c1nc(C(=O)N[C@@H](Cc2ccc(O)cc2)C[C@H](C)C(=O)O)cs1)C(C)C [VIc, (2S,4R)-5-(4-Hydroxyphenyl)-4-(2-((7R,9R)-9-isopropyl-10-((2S,3S)-3-methyl-2-((R)-1-methylpiperidine-2-carboxamido)pentanoyl)-5-oxo-6,11-dioxa-4,10-diazaheptadecan-7-yl)thiazole-4-carboxamido)-2-methylpentanoic acid]
HCT-15 + verapamil % Kill ([4]; with 5 ug/mL Verapamil): 98.8%
pIC50 [4, 11]: 9.54
HCT-15 % Kill ([4]; without Verapamil): 94%
pIC50 [4, 12]: 7.88
pIC50 [2]: 8.88
C4-2 % Kill [2]: 95.5 ± 1.8%

CCCCCON(C(=O)[C@@H](NC(=O)[C@H]1CCCCN1C)[C@@H](C)CC)[C@H](C[C@@H](OC(C)=O)c1nc(C(=O)N[C@@H](Cc2ccc(O)cc2)CC(C)(C)C(=O)O)cs1)C(C)C [X, (4S)-4-({2-[(1R,3R)-1-(Acetyloxy)-4-methyl-3-[(2S,3S)-3-methyl-2-{[(2R)-1-methylpiperidin-2-yl]formamido}-N-(pentyloxy)pentanamido]pentyl]-1,3-thiazol-4-yl}formamido)-5-(4-hydroxyphenyl)-2,2-dimethylpentanoic acid]
pIC50 [4, 13]: 9.94
pIC50 [4, 14]: 10.01
pIC50 [2]: 10.22

CCCC(=O)OCN(C(=O)[C@@H](NC(=O)[C@H]1CCCCN1C)[C@@H](C)CC)[C@H](C[C@@H](OC(C)=O)c1nc(C(=O)N[C@@H](Cc2ccc(O)cc2)C[C@H](C)C(=O)O)cs1)C(C)C [reference compound]
MES-SA/MX2 % Kill 72 h ([5]; 72 h incubation): 98.6%
MES-SA/MX2 % Kill 144 h ([5]; 144 h incubation): 99.9%
pIC50 ([5]; 72 h incubation, read-out: MES-SA/MX2 IC50 72 h): 9.24
pIC50 ([5]; 144 h incubation, read-out: MES-SA/MX2 IC50 144 h): 8.88
HCT-15 + verapamil % Kill ([4]; with 5 ug/mL Verapamil): 99.1%
pIC50 [4, 11]: 9.89
HCT-15 % Kill ([4]; without Verapamil): 99.1%
pIC50 [4, 12]: 9.29
HL60/MX2 % Kill 72 h ([6]; 72 h incubation): 98%
HL60/MX2 % Kill 144 h ([6]; 144 h incubation): 100%
pIC50 ([6]; 72 h incubation, read-out: HL60/MX2 IC50 72 h): > 10.82
pIC50 ([6]; 144 h incubation, read-out: HL60/MX2 IC50 144 h): > 10.82
pIC50 [2]: 9.96
C4-2 % Kill [2]: 96.4%
